Measurements published in US20090197878A1, “SUBSTITUTED BENZO[d][1,3]OXAZIN-2(4H)-ONES AND RELATED DERIVATIVES AND THEIR USES FOR MODULATING THE PROGESTERONE RECEPTOR” (Wyeth, priority 2008, published 2009).

Columns and labels:
[1] = test system: alkaline phosphatase activity in T47D cells; assay: Effects of progestins and antiprogestins on alkaline phosphatase activity in T47D cells; assay type: cell-based; settings: Homo sapiens; for IC50: antagonist mode in the presence of 1 nM progesterone, 24 hours; for inhibition at 3 µM: at 3000 nM; for inhibition at 0.3 µM: at 300 nM
Description: The purpose of this example is to identify progestins or antiprogestins by determining a compound's effect on alkaline phosphatase activity in T47D cells.
A. Reagents: • Culture medium: Dulbecco's Modified Eagle Medium (DMEM):F12 (1:1) (GIBCO, BRL) supplemented with 5% (v/v) charcoal stripped fetal bovine serum (not heat-inactivated), 100 U/mL penicillin, 100 μg/mL streptomycin, and 2 mM of the GlutaMax® reagent (GIBCO, BRL). • Alkaline phosphatase assay buffer: • I. 0.1M Tris-HCl, pH 9.8, containing 0.2% Triton® X-100 reagent • II. 0.1M Tris-HCl, pH 9.8, containing 4 mM p-nitrophenyl phosphate (Sigma).
Frozen T47D cells are thawed in a 37° C. water bath and diluted to 280,000 cells/mL in culture medium. To each well in a 96-well plate (Falcon, Becton Dickinson Labware), was added 180 μL of diluted cell suspension. Twenty μL of reference or test compounds diluted in the culture medium is then added to each well. When testing for progestin antagonist activity, reference antiprogestins or test compounds are added in the presence of 1 nM progesterone. The cells are incubated at 37° C. in a 5% CO2/humidified atmosphere for 24 hours. For high throughput screening, one concentration of each compound will be tested at 0.3 μg/mL. Based on an average molecular weight of 300 g/mol for the compounds in the library, the concentration is approximately 1 μM. Compounds active in this assay can be tested in dose response assays to determine EC50 and IC50.
C. Alkaline Phosphatase Enzyme Assay: • At the end of treatment, the medium is removed from the plate. Fifty μL of assay buffer I is added to each well. The plates are shaken in a titer plate shaker for 15 minutes. Then 150 μL of assay buffer II is added to each well. Optical density measurements are taken at 5 minute intervals for 30 minutes at a test wavelength of 405 nm.
D. Analysis of Results: Analysis of Dose-Response Data • For reference and test compounds, a dose response curve is generated for dose (X-axis) vs. the rate of enzyme reaction (slope) (Y-axis). Square root-transformed data are used for analysis of variance and nonlinear dose response curve fitting for both agonist and antagonist modes. Huber weighting is used to down-weight the effects of outliers. EC50 or IC50 values are calculated from the retransformed values. JMP® software (SAS Institute, Inc.) is used for both one-way analysis of variance and non-linear dose response analysis in both single dose and dose response studies.
E. Reference Compounds • Progesterone and trimegestone are reference progestins and RU486 is the reference antiprogestin. All reference compounds are run in full dose response curves and the EC50 and IC50 values are calculated.

[2] = in the presence of 1 nM progesterone

COC(=O)/C=C/c1ccc2c(c1)C(C)(C)CC(=O)N2 [Example 1, Methyl(2E)-3-(4,4-dimethyl-2-oxo-1,2,3,4-tetrahydroquinolin-6-yl)acrylate]
melting point: 174 to 175 °C

COC(=O)/C=C/c1ccc2c(c1)C(C)(C)OC(=O)N2 [Example 2, Methyl(2E)-3-(4,4-dimethyl-2-oxo-1,4-dihydro-2H-3,1-benzoxazin-6-yl)acrylate]
melting point: 204 to 205 °C

CC1(C)OC(=O)Nc2ccc(/C=C/c3ccno3)cc21 [Example 3, 6-[(E)-2-Isoxazol-5-ylvinyl]-4,4-di-methyl-1,4-dihydro-2H-3,1-benzoxazin-2-one]
melting point: 190 to 193 °C

CC1(C)OC(=O)Nc2ccc(/C=C/C(N)=O)cc21 [Example 4, (2E)-3-(4,4-Dimethyl-2-oxo-1,4-dihydro-2H-3,1-benzoxazin-6-yl)acrylamide]
IC50 [1]: 50 µM
melting point: 196 to 198 °C

C/C(=C\C(N)=O)c1ccc2c(c1)C(C)(C)OC(=O)N2 [Example 5, (2E)-3-(4,4-Dimethyl-2-oxo-1,4-dihydro-2H-3,1-benzoxazin-6-yl)but-2-enamide]
IC50 [1]: 50 µM
melting point: 198 to 200 °C

CC1(C)OC(=O)Nc2ccc(/C(=C/C(N)=O)c3ccccc3)cc21 [Example 7, (2E)-3-(4,4-Dimethyl-2-oxo-1,4-dihydro-2H-3,1-benzoxazin-6-yl)-3-phenylacrylamide]
IC50 [1]: 50 µM
melting point: 219 to 220 °C

CC1(C)OC(=O)Nc2ccc(/C=C/C#N)cc21 [Example 8, (2E)-3-(4,4-Dimethyl-2-oxo-1,4-dihydro-2H-3,1-benzoxazin-6-yl)acrylonitrile]
melting point: 238 to 240 °C (dec.)

CC1(C)OC(=O)Nc2ccc(C3=CC(=O)OCC3)cc21 [Example 10, 4,4-Dimethyl-6-(6-oxo-3,6-dihydro-2H-pyran-4-yl)-1,4-dihydro-2H-3,1-benzoxazin-2-one]
melting point: 235 to 236 °C (dec.)

COC(=O)/C=C(\c1ccccc1)c1ccc2c(c1)C(C)(C)OC(=O)N2 [Example 11, Methyl(2E)-3-(4,4-dimethyl-2-oxo-1,4-dihydro-2H-3,1-benzoxazin-6-yl)-3-phenylacrylate]
melting point: 181 to 182 °C

CC1(C)OC(=O)Nc2ccc(/C=C/C(=O)O)cc21 [Example 14, (2E)-3-(4,4-Dimethyl-2-oxo-1,4-dihydro-2H-3,1-benzoxazin-6-yl)acrylic acid]
inhibition at 3 µM [1, 2]: 0%
melting point: 260 to 261 °C (dec.)

C/C(=C\C(=O)O)c1ccc2c(c1)C(C)(C)OC(=O)N2 [Example 15, (2E)-3-(4,4-Dimethyl-2-oxo-1,4-dihydro-2H-3,1-benzoxazin-6-yl)but-2-enoic acid]
inhibition at 3 µM [1, 2]: 0%
melting point: 274 to 275 °C (dec.)

C/C(=C\C(N)=O)c1ccc2c(c1)C1(CCCCC1)OC(=O)N2 [Example 16, (2E)-3-(2-Oxo-1,2-dihydrospiro[3,1-benzoxazine-4,1′-cyclohexan]-6-yl)but-2-enamide]
inhibition at 3 µM [1, 2]: 0%
melting point: 204 to 207 °C (dec.)

C/C(=C\C#N)c1ccc2c(c1)C1(CCCCC1)OC(=O)N2 [Example 17, (2E)-3-(2-oxo-1,2-dihydrospiro[3,1-benzoxazine-4,1′-cyclohexan]-6-yl)but-2-enenitrile]
inhibition at 0.3 µM [1, 2]: 60%
melting point: 208 to 210 °C (dec.)

CC/C(=C\C(N)=O)c1ccc2c(c1)C1(CCCCC1)OC(=O)N2 [Example 18, (2E)-3-(2-Oxo-1,2-dihydrospiro[3,1-benzoxazine-4,1′-cyclohexan]-6-yl)pent-2-enamide]
inhibition at 3 µM [1, 2]: 22%
melting point: 235 to 238 °C (dec.)

CC/C(=C\C#N)c1ccc2c(c1)C1(CCCCC1)OC(=O)N2 [Example 19, (2E)-3-(2-Oxo-1,2-dihydrospiro[3,1-benzoxazine-4,1′-cyclohexan]-6-yl)pent-2-enenitrile]
inhibition at 0.03 µM ([1]; at 30 nM, in the presence of 1 nM progesterone): 60%
melting point: 173 to 174 °C

CC(C)/C(=C\C#N)c1ccc2c(c1)C1(CCCCC1)OC(=O)N2 [Example 21, (2E)-4-Methyl-3-(2-oxo-1,2-dihydrospiro[3,1-benzoxazine-4,1′-cyclohexan]-6-yl)pent-2-enenitrile]
inhibition at 0.3 µM [1, 2]: 60%
melting point: 201 to 203 °C (dec.)

CCC/C(=C\C(N)=O)c1ccc2c(c1)C(CC)(CC)OC(=O)N2 [Example 24, (2E)-3-(4,4-Diethyl-2-oxo-1,4-dihydro-2H-3,1-benzoxazin-6-yl)hex-2-enamide]
inhibition at 3 µM [1, 2]: 65%
melting point: 212 to 213 °C

CCC/C(=C\C=O)c1ccc2c(c1)C(CC)(CC)OC(=O)N2 [Example 26, (2E)-3-(4,4-Diethyl-2-oxo-1,4-dihydro-2H-3,1-benzoxazin-6-yl)hex-2-enal]
inhibition at 3 µM [1, 2]: 100%
melting point: 173 to 179 °C
